From paper PMC7576608, “Mechanisms of telomerase inhibition by oxidized and therapeutic dNTPs” (Nature Communications, 2020)
“And” between values parts separate entries of the source, which are not always exact repeats. Identical values can stand only once. Blank lines part the entries; values can stand above or below the compound they belong to.

Experiments:
telomerase [1] = target: T1, telomerase (Homo sapiens, UniProt O14746); test: Telomerase repeat processivity IC50: modified dNTP titrated into reactions with all four natural dNTPs; assay type: biochemical; design: made in house; anti-FLAG immunopurification, eluted with 3xFLAG peptide; settings: for Slope (line fit of ln(100-%LB) vs # telomere repeats) / YIntercept (line fit of ln(100-%LB) vs # telomere repeats): replicates n1, n2; for ln(100-%LB): n1, n2
Excerpt: In order to better understand the ability of modified dNTPs to compete with natural dNTPs for telomerase utilization, we added modified dNTPs to reactions containing all four natural dNTPs. […] The calculated IC50 determines the concentration required to reduce repeat processivity in the bulk reactions by half. However, it is important to note that bulk experiments cannot distinguish effects on individual telomeres, since extended telomeres mask unextended telomeres. Incorporation of a chain terminator during any step will terminate extension of the affected telomere, and just five critically short telomeres are sufficient to trigger senescence. Therefore, repeat processivity IC50 values are not necessarily an indicator of the inhibitory potency, but provide information on selectivity for modified dNTPs compared to natural dNTPs. […] The ability to purify sufficient quantities of tcTERT enables characterization of the catalytic nucleotide addition by pre-steady-state single turnover kinetics using a defined DNA–RNA primer–template substrate. The catalytic efficiency of incorporating a single dNTP is measured by dividing the observed nucleotide incorporation rate constant, kpol, by the equilibrium dissociation constant for dNTP binding to the tcTERT–primer–template complex (Kd)[44].
(§1) The reactions were started by the addition of 3 μl of immunopurified telomerase eluent, incubated at 37 °C for 1 h, then terminated with 2 μl of 0.5 mM EDTA and heat inactivated at 65 °C for 20 min. An equal volume of loading buffer (94% formamide, 0.1× TBE, 0.1% bromophenol blue, 0.1% xylene cyanol) was added to the reaction eluent. The samples were heat denatured for 10 min at 100 °C and loaded onto a 14% denaturing acrylamide gel (7 M urea, 1× TBE) and electrophoresed for 90 min at constant 38 W. Samples were imaged using a Typhoon phosphorimager (GE Healthcare). Percent primer extension was calculated with ImageQuant TL 8.2 by measuring the intensity of each product band and dividing by the total radioactivity in the lane or total products, as indicated in the figure legends.
The processivity was calculated as described[40],[67]. Repeat processivity from the direct telomerase extension assays was calculated as R1/2 (equivalent to the half-time for decay in an exponential time course), which represents the median length of DNA product formed, expressed in terms of number of telomere repeats. First, the total volume counts for each product band extend by one or more telomere repeats were obtained using Image Quant TL. The volume counts were then normalized by dividing by the number of radiolabeled guanosines incorporated into the extended products based on the number of repeats added, termed corrected volume (corr vol). The “percent left behind” (%LB) was calculated for each product band by summing the counts for that product band and for every product band below (shorter products), divided by the total counts for the lane, and then multiplied by 100. The natural log of (100−%LB) was calculated and then plotted vs. repeat number for each product length. A linear regression line was fit to the data to determine the slope of the line. The R1/2 value was calculated by dividing −ln(2) by the slope of each fitted line (R1/2 = −ln(2)/slope).
Supplementary Fig 8. IC50 values for telomerase processivity inhibition. Telomerase reactions were conducted with cellular relevant concentrations of all four natural dNTPs and increasing concentrations of the modified dNTP analog from 0 to 10,000 μM to calculate. (a) The natural log of (100-%LB) was plotted vs repeat number. A straight line was fit to the data and the R1/2 value was calculated by dividing –ln(2) by the slope of each line. Plots shown from one experiment are […]

telomerase [2] = target: T1, telomerase; test: Telomerase extension of 32P-end labeled primers with a single dNTP (percent primer extension); assay type: biochemical; design: made in house; anti-FLAG immunopurification, eluted with 3xFLAG peptide; settings: for Percent Primer Extension: 50 μM single dNTP
Description: A chain terminating mechanism of inhibition requires that the enzyme adds the modified dNTP to a growing chain, which then blocks further synthesis. […] To test whether telomerase can incorporate other modified dNTPs, and whether the incorporation is chain terminating and/or mutagenic, we conducted direct extension assays in which we radiolabeled the primer and added increasing concentrations (5, 50, and 500 μM) of a single dNTP (Supplementary Figs. 3, 5, 6, and 7). Since modified dNTPs may prefer mispairing, we tested various primers in which the first template base was either rA3, rC1, or rU5 (primer 1, primer 2, and primer 3, respectively), and compared the percent primer extension for each dNTP at the middle 50 μM concentration (Fig. 3). Primers 1 and 2 initiate synthesis at consecutive rA3rA4 or rC1rC2 template bases, respectively, so we could examine both incorporation and extension to the next base. However, the telomerase template lacks tandem rU residues.
Fig. 3 Telomerase insertion of modified dNTPs. Telomerase reactions were conducted with 5 nM ^32P-end labeled primer a Primer 1 (TTAGGG)3, b Primer 2 (GGTTAG)3, or c Primer 3 (AGGGTT)3. Reactions contained cellular-concentration dNTPs (lane 1) or 50 μM of indicated natural dNTP (blue, lanes 2–5), oxidized dNTP (red, lanes 6–8), or therapeutic dNTP (green, lanes 9–11). Products were separated on denaturing gels. […] Letters on the right indicate the template base; P indicates unextended 18-mer primer. Graphs represent the percent of total primers extended. Images are representative of, and data are shown as mean ± s.d. from, three independent experiments. Source data are provided as a Source Data file.
as §1, with “An” for “The reactions were started by the addition of 3 μl of immunopurified telomerase eluent, incubated at 37 °C for 1 h, then terminated with 2 μl of 0.5 mM EDTA and heat inactivated at 65 °C for 20 min. An”
Telomerase reactions were conducted with 5 nM 32P-end labeled primer (a) Primer 1 (TTAGGG)3, (b) Primer 2 (GGTTAG)3, or (c and d) Primer 3 […]
(d) reactions contained 3 µg/µl RNase A. Products were separated on denaturing gels. Letters on the right indicate the template base; P indicates unextended 18-mer primer. Graphs represent the percent of total primers extended for the reactions in panels a – c from one experiment. Panel d is a representative image from three independent experiments. Source data are provided as a Source Data file. […]
Supplementary Fig 4. Time course reactions with telomerase or pol β. (a, b) Telomerase reactions were conducted with 5 nM 32P-end labeled primer (a) Primer 4 (GTTAGG)3 or (b) Primer 2 (GGTTAG)3.
Products were separated on denaturing gels. Letters on the right indicate the template base; P indicates […]
unextended 18-mer primer. […]

T1 sequence (O14746 whole entry): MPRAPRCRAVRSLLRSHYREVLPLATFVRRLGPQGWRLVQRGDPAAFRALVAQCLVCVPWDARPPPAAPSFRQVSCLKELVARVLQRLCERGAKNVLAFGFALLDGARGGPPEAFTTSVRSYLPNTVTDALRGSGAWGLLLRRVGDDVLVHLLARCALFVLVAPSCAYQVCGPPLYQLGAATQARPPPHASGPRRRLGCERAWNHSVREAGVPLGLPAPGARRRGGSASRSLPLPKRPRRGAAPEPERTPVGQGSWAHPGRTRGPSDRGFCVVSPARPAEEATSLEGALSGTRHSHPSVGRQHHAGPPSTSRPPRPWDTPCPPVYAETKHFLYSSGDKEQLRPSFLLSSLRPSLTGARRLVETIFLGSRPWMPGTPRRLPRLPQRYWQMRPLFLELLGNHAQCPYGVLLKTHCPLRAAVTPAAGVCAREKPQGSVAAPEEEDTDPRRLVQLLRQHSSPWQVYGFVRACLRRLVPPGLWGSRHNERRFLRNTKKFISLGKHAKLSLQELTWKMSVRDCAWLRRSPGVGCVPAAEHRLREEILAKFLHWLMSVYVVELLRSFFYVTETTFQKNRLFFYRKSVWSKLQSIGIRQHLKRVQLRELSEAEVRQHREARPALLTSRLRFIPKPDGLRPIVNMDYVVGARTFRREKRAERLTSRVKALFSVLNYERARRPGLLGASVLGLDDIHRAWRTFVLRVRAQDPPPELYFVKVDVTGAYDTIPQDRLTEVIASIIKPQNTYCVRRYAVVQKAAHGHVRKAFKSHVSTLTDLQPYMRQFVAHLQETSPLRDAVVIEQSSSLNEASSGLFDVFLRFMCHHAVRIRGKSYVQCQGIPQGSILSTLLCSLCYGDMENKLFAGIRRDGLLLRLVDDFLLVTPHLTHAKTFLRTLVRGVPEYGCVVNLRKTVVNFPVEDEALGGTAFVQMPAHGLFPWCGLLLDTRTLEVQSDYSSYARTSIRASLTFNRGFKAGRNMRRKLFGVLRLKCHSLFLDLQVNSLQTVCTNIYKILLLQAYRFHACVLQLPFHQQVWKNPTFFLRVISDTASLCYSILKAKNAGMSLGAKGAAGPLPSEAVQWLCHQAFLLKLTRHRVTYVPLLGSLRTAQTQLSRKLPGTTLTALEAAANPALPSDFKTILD

- Slope (line fit of ln(100-%LB) vs # telomere repeats) (telomerase [1]; 8μM): -0.35 and -0.41
- YIntercept (line fit of ln(100-%LB) vs # telomere repeats) (telomerase [1]; 8μM): 3.32 and 3.48
- ln(100-%LB) (telomerase [1]; 8μM, telomere repeat 1): 3.55 and 3.46
- ln(100-%LB) (telomerase [1]; 8μM, telomere repeat 2): 2.86 and 2.72
- ln(100-%LB) (telomerase [1]; 8μM, telomere repeat 3): 2.16 and 1.97
- ln(100-%LB) (telomerase [1]; 8μM, telomere repeat 4): 1.81 and 1.63
- ln(100-%LB) (telomerase [1]; 8μM, telomere repeat 5): 1.46 and 1.29
- ln(100-%LB) (telomerase [1]; 8μM, telomere repeat 6): 1.02 and 0.87
- ln(100-%LB) (telomerase [1]; 8μM, telomere repeat 7): 0.66 and 0.48
- ln(100-%LB) (telomerase [1]; 8μM, telomere repeat 8): 0.32 and 0.21
- Slope (line fit of ln(100-%LB) vs # telomere repeats) (telomerase [1]; 32μM): -0.51 and -0.43
- YIntercept (line fit of ln(100-%LB) vs # telomere repeats) (telomerase [1]; 32μM): 3.76 and 3.36
- ln(100-%LB) (telomerase [1]; 32μM, telomere repeat 1): 3.48 and 3.40
- ln(100-%LB) (telomerase [1]; 32μM, telomere repeat 2): 2.72 and 2.60
- ln(100-%LB) (telomerase [1]; 32μM, telomere repeat 3): 1.91 and 1.78
- ln(100-%LB) (telomerase [1]; 32μM, telomere repeat 4): 1.53 and 1.42
- ln(100-%LB) (telomerase [1]; 32μM, telomere repeat 5): 1.15 and 1.06
- ln(100-%LB) (telomerase [1]; 32μM, telomere repeat 6): 0.66
- ln(100-%LB) (telomerase [1]; 32μM, telomere repeat 7): 0.23 and 0.18
- Slope (line fit of ln(100-%LB) vs # telomere repeats) (telomerase [1]; 500μM): -1.08 and -0.93
- YIntercept (line fit of ln(100-%LB) vs # telomere repeats) (telomerase [1]; 500μM): 4.06 and 3.77
- ln(100-%LB) (telomerase [1]; 500μM, telomere repeat 1): 3.07 and 3.05
- ln(100-%LB) (telomerase [1]; 500μM, telomere repeat 2): 1.89 and 1.90
- ln(100-%LB) (telomerase [1]; 500μM, telomere repeat 3): 0.66 and 0.65
- Slope (line fit of ln(100-%LB) vs # telomere repeats) (telomerase [1]; 1000μM): -1.14 and -1.23
- YIntercept (line fit of ln(100-%LB) vs # telomere repeats) (telomerase [1]; 1000μM): 4.20 and 4.38
- ln(100-%LB) (telomerase [1]; 1000μM, telomere repeat 1): 3.08 and 3.19
- ln(100-%LB) (telomerase [1]; 1000μM, telomere repeat 2): 1.90 and 1.97
- ln(100-%LB) (telomerase [1]; 1000μM, telomere repeat 3): 0.69 and 0.55
- Slope (line fit of ln(100-%LB) vs # telomere repeats) (telomerase [1]; 2000μM): -1.39 and -1.63
- YIntercept (line fit of ln(100-%LB) vs # telomere repeats) (telomerase [1]; 2000μM): 4.11 and 4.80
- ln(100-%LB) (telomerase [1]; 2000μM, telomere repeat 1): 2.72 and 3.17
- ln(100-%LB) (telomerase [1]; 2000μM, telomere repeat 2): 1.32 and 1.54
Compound: Cc1cn(C2CC(N=[N+]=[N-])C(COP(=O)(O)OP(=O)(O)OP(=O)(O)O)O2)c(=O)[nH]c1=O (stereo not drawn) [AZ-TP]

- % Primer Extension (telomerase [2]; Primer 1, 5µM dNTP): 6.28%
- % Primer Extension (telomerase [2]; Primer 1, 50µM dNTP): 12.17%
- % Primer Extension (telomerase [2]; Primer 1, 500µM dNTP): 12.98%
- % Primer Extension (telomerase [2]; Primer 2, 5µM dNTP): 0%
- % Primer Extension (telomerase [2]; Primer 2, 50µM dNTP): 0%
- % Primer Extension (telomerase [2]; Primer 2, 500µM dNTP): 0%
- % Primer Extension (telomerase [2]; Primer 3, 5µM dNTP): 0%
- % Primer Extension (telomerase [2]; Primer 3, 50µM dNTP): 3.43%
- % Primer Extension (telomerase [2]; Primer 3, 500µM dNTP): 4.38%
Compound: Cc1cn([C@H]2C[C@H](N=[N+]=[N-])[C@@H](CO)O2)c(=O)[nH]c1=O [AZT]

- Percent Primer Extension (telomerase [2]; Primer 1 (TTAGGG)3, first template base rA3, Mean of three experiments): 5.85%
- Percent Primer Extension (telomerase [2]; Primer 1 (TTAGGG)3, first template base rA3, single experiments n1-n3, listed as dC): 5.75% and 3.98% and 7.81%
- % Primer Extension (telomerase [2]; Primer 1, 5µM dNTP): 4.15%
- % Primer Extension (telomerase [2]; Primer 1, 50µM dNTP): 7.81%
- % Primer Extension (telomerase [2]; Primer 1, 500µM dNTP): 8.06%
- Percent Primer Extension (telomerase [2]; Primer 2 (GGTTAG)3, first template base rC1, Mean of three experiments): 0.00%
- Percent Primer Extension (telomerase [2]; Primer 2 (GGTTAG)3, first template base rC1, single experiments n1-n3): 0.00%
- % Primer Extension (telomerase [2]; Primer 2, 5µM dNTP): 0.00%
- % Primer Extension (telomerase [2]; Primer 2, 50µM dNTP): 0.00%
- % Primer Extension (telomerase [2]; Primer 2, 500µM dNTP): 0.00%
- Percent Primer Extension (telomerase [2]; Primer 3 (AGGGTT)3, first template base rU5, Mean of three experiments): 0.00%
- Percent Primer Extension (telomerase [2]; Primer 3 (AGGGTT)3, first template base rU5, single experiments n1-n3): 0.00%
- % Primer Extension (telomerase [2]; Primer 3, 5µM dNTP): 0.00%
- % Primer Extension (telomerase [2]; Primer 3, 50µM dNTP): 0.00%
- % Primer Extension (telomerase [2]; Primer 3, 500µM dNTP): 0.00%
Compound: Nc1ccn([C@H]2C[C@H](O)[C@@H](COP(=O)(O)OP(=O)(O)OP(=O)(O)O)O2)c(=O)n1 [dCTP]
